Data reported in ChEMBL document CHEMBL4837216, “Polymyxin B-inspired non-hemolytic tyrocidine A analogues with significantly enhanced activity against gram-negative bacteria: How cationicity impacts cell specificity and antibacterial mechanism” (Eur J Med Chem, 2021).
Converted amounts (≈) assume the structure as drawn. The source made the active and inactive calls. No cut-off for these calls is given here. Where a SMILES comes first, the peptide text is derived from it. Bridges are numbered along the chain shown (N, C = ends). [ ]: non-standard residue; d: D form. The star is where a group is joined. X1 = CC[C@H](C)CCCCC(=O)*; Orn = NCCC[C@H](N)C(=O)O; Dab = NCC[C@H](N)C(=O)O

How the values were obtained:
[1] = tested on: Staphylococcus aureus; assay: Antibacterial activity against Staphylococcus aureus ATCC 6538 assessed as inhibition of bacterial growth measured after 24 hrs by turbidity based analysis; assay type: functional
[2] = tested on: Staphylococcus aureus; assay: Antibacterial activity against methicillin resistant Staphylococcus aureus assessed as inhibition of bacterial growth measured after 24 hrs by turbidity based analysis; assay type: functional
[3] = tested on: Acinetobacter baumannii; assay: Antibacterial activity against Acinetobacter baumannii ATCC 19606 assessed as inhibition of bacterial growth measured after 24 hrs by turbidity based analysis; assay type: functional; conditions: ATCC 19606 = CIP 70.34 = JCM 6841
[4] = Hemolytic activity in human RBC assessed as induction of cell lysis measured after 30 mins by microtiter plate method; assay type: cell-based, Erythrocyte; conditions: human red blood cells (erythrocytes)
[5] = tested on: Enterococcus faecalis; assay: Antibacterial activity against Enterococcus faecalis ATCC 29212 assessed as inhibition of bacterial growth measured after 24 hrs by turbidity based analysis; assay type: functional
[6] = tested on: Escherichia coli; assay: Antibacterial activity against Escherichia coli ATCC 8739 assessed as inhibition of bacterial growth measured after 24 hrs by turbidity based analysis; assay type: functional
[7] = tested on: Pseudomonas aeruginosa; assay: Antibacterial activity against Pseudomonas aeruginosa ATCC 27853 assessed as inhibition of bacterial growth measured after 24 hrs by turbidity based analysis; assay type: functional
[8] = tested on: Cell membrane; assay: Induction of outer membrane permeabilization to NPN in Escherichia coli ATCC 8739 cells assessed as increase in fluorescence intensity by NPN-probe based fluorescence spectrophotometric analysis; assay type: subcellular
[9] = tested on: Lipopolysaccharide (LPS); assay: Displacement of dansyl-polymyxinB from LPS (unknown origin) assessed as decrease in fluorescence intensity by fluorescence spectrophotometric analysis
[10] = tested on: Cell membrane; assay: Induction of cytoplasmic membrane depolarization in Escherichia coli assessed as increase in fluorescence intensity a 1XMIC by DiSC3-5 dye based fluorescence method
[11] = tested on: Cell membrane; assay: Induction of cytoplasmic membrane permeabilization in Staphylococcus aureus at 1 times MIC measured for 10 mins by propidium iodide dye based fluorescence assay
[12] = tested on: Lipid bilayer; assay: Binding affinity to bacterial inner membrane mimic DOPE/DOPG (3:1) large unilamellar vesicles assessed as calcein leakage measured after 30 mins fluorescence based assay
[13] = tested on: Cell membrane; assay: Induction of cytoplasmic membrane permeabilization in Escherichia coli at 0.5 times MIC measured for 10 mins by propidium iodide dye based fluorescence assay; assay type: subcellular
[14] = tested on: Cell membrane; assay: Induction of cytoplasmic membrane permeabilization in Staphylococcus aureus at 0.5 times MIC measured for 10 mins by propidium iodide dye based fluorescence assay; assay type: subcellular
[15] = tested on: Lipid bilayer; assay: Binding affinity to eukaryotic cell membrane mimic DOPC/Cholesterol (3:1) large unilamellar vesicles assessed as calcein leakage measured after 30 mins fluorescence based assay
[16] = tested on: Escherichia coli; assay: Bactericidal activity against Escherichia coli assessed as decrease in cell survival at 0.5XMIC measured after 24 hrs by colony counting assay; assay type: functional, organism-based
[17] = tested on: Cell membrane; assay: Induction of cytoplasmic membrane depolarization in Staphylococcus aureus assessed as increase in fluorescence intensity a 1XMIC by DiSC3-5 dye based fluorescence method
[18] = tested on: Staphylococcus aureus; assay: Bactericidal activity against Staphylococcus aureus assessed as decrease in cell survival at 0.5XMIC measured after 24 hrs by colony counting assay; assay type: functional, organism-based
[19] = tested on: L02; assay: Cytotoxicity against human L02 cells assessed as reduction in cell viability at 5 uM incubated for 24 hrs by CCK8 assay; assay type: cell-based; conditions: l02, 24 h
[20] = tested on: Cell membrane; assay: Induction of cytoplasmic membrane permeabilization in Escherichia coli at 1 times MIC measured for 10 mins by propidium iodide dye based fluorescence assay; assay type: subcellular
[21] = tested on: Escherichia coli; assay: Antibacterial activity against Escherichia coli ATCC 8739 assessed as inhibition of bacterial growth measured after 17 passages by turbidity based analysis; assay type: functional, organism-based
[22] = tested on: Staphylococcus aureus; assay: Antibacterial activity against Staphylococcus aureus ATCC 6538 assessed as inhibition of bacterial growth measured after 17 passages by turbidity based analysis; assay type: functional, organism-based

Row | SMILES | MIC [1] [µM] | MIC [2] [µM] | MIC [3] [µM] | HC50 at 0.5 h [4] [µM] | MIC [5] [µM] | MIC [6] [µM] | MIC [7] [µM] | Activity [8] | Activity [9] | Activity [10] | Activity [17] | further results
1 | CC(C)C[C@@H]1NC(=O)[C@H](CCCN)NC(=O)[C@H](C(C)C)NC(=O)[C@H](Cc2ccc(O)cc2)NC(=O)[C@H](CCC(N)=O)NC(=O)[C@H](CCCN)NC(=O)[C@@H](Cc2ccccc2)NC(=O)[C@H](Cc2ccccc2)NC(=O)[C@@H]2CCCN2C(=O)[C@@H](Cc2ccccc2)NC1=O | 5 (≈ 6.35 µg/mL) | 20 (≈ 25.4 µg/mL) | 5 (≈ 6.35 µg/mL) | 20 | 2.5 (≈ 3.18 µg/mL) | 20 (≈ 25.4 µg/mL) | 80 (≈ 102 µg/mL) | Active |  |  |  | 
2 | CC(C)C[C@@H]1NC(=O)[C@H](CCCN)NC(=O)[C@H](C(C)C)NC(=O)[C@H](CCCN)NC(=O)[C@H](CCCN)NC(=O)[C@H](CC(N)=O)NC(=O)[C@@H](Cc2ccccc2)NC(=O)[C@H](Cc2ccccc2)NC(=O)[C@@H]2CCCN2C(=O)[C@@H](Cc2ccccc2)NC1=O | 10 (≈ 12.1 µg/mL) | 10 (≈ 12.1 µg/mL) | 10 (≈ 12.1 µg/mL) | 70 | 2.5 (≈ 3.02 µg/mL) | 10 (≈ 12.1 µg/mL) | 20 (≈ 24.1 µg/mL) |  |  |  |  | 
3 | CC(C)[C@@H]1NC(=O)[C@H](CCCN)NC(=O)[C@H](CCCN)NC(=O)[C@H](CCCN)NC(=O)[C@@H](Cc2ccccc2)NC(=O)[C@H](Cc2ccccc2)NC(=O)[C@@H]2CCCN2C(=O)[C@@H](Cc2ccccc2)NC(=O)[C@H](CCCN)NC(=O)[C@H](CCCN)NC1=O | 40 (≈ 48.3 µg/mL) | 10 (≈ 12.1 µg/mL) | 80 (≈ 96.7 µg/mL) | > 400 | 10 (≈ 12.1 µg/mL) | 80 (≈ 96.7 µg/mL) | 80 (≈ 96.7 µg/mL) |  | Active |  |  | 
4 | CC(C)C[C@@H]1NC(=O)[C@H](CCCN)NC(=O)[C@H](C(C)C)NC(=O)[C@H](Cc2ccc(O)cc2)NC(=O)[C@H](CCC(N)=O)NC(=O)[C@H](CC(N)=O)NC(=O)[C@@H](Cc2ccccc2)NC(=O)[C@H](Cc2ccccc2)NC(=O)[C@@H]2CCCN2C(=O)[C@@H](Cc2ccccc2)NC1=O [TYROCIDINE A] (cyclo(F[dF]NQYV[Orn]L[dF]P)) | 2.5 (≈ 3.18 µg/mL) | 20 (≈ 25.4 µg/mL) | 10 (≈ 12.7 µg/mL) | 14 | 2.5 (≈ 3.18 µg/mL) | 20 (≈ 25.4 µg/mL) | 80 (≈ 102 µg/mL) | Active | Active | Active | Active | Activity [11]: Active; Activity [12]: Active; Activity [13]: Active; Activity [14]: Active; Activity [15]: Active; Activity [16]: inactive; Activity [18]: inactive; Activity [19]: Toxic; Activity [20]: Active
5 | CC[C@H](C)CCCCC(=O)N[C@@H](CCN)C(=O)N[C@H](C(=O)N[C@@H](CCN)C(=O)N[C@H]1CCNC(=O)[C@H]([C@@H](C)O)NC(=O)[C@H](CCN)NC(=O)[C@H](CCN)NC(=O)[C@H](CC(C)C)NC(=O)[C@@H](Cc2ccccc2)NC(=O)[C@H](CCN)NC1=O)[C@@H](C)O (X1-[Dab]T[Dab][Dab][Dab][dF]L[Dab][Dab]T; lactam 4-C) |  |  |  |  |  |  |  |  | Active |  |  | 
6 | CC(C)C[C@@H]1NC(=O)[C@H](CCCN)NC(=O)[C@H](C(C)C)NC(=O)[C@H](Cc2ccc(O)cc2)NC(=O)[C@H](CCCN)NC(=O)[C@H](CCCN)NC(=O)[C@@H](Cc2ccccc2)NC(=O)C(Cc2ccccc2)NC(=O)[C@@H]2CCCN2C(=O)[C@@H](Cc2ccccc2)NC1=O (single isomer, unassigned) | 5 (≈ 6.28 µg/mL) | 5 (≈ 6.28 µg/mL) | 5 (≈ 6.28 µg/mL) | 24 | 2.5 (≈ 3.14 µg/mL) | 5 (≈ 6.28 µg/mL) | 40 (≈ 50.3 µg/mL) |  |  |  |  | 
7 | CC(C)C[C@@H]1NC(=O)[C@H](CCCN)NC(=O)[C@H](C(C)C)NC(=O)[C@H](CCCN)NC(=O)[C@H](CCCN)NC(=O)[C@H](CCCN)NC(=O)[C@@H](Cc2ccccc2)NC(=O)[C@H](Cc2ccccc2)NC(=O)[C@@H]2CCCN2C(=O)[C@@H](Cc2ccccc2)NC1=O | 5 (≈ 6.04 µg/mL) | 10 (≈ 12.1 µg/mL) | 10 (≈ 12.1 µg/mL) | 196 | 5 (≈ 6.04 µg/mL) | 5 (≈ 6.04 µg/mL) | 20 (≈ 24.2 µg/mL) | Active | Active | Active | Active | 
8 | CC(C)C[C@@H]1NC(=O)[C@H](CCCN)NC(=O)[C@H](C(C)C)NC(=O)[C@H](CCCN)NC(=O)[C@H](CCC(N)=O)NC(=O)[C@H](CCCN)NC(=O)[C@@H](Cc2ccccc2)NC(=O)[C@H](Cc2ccccc2)NC(=O)[C@@H]2CCCN2C(=O)[C@@H](Cc2ccccc2)NC1=O | 5 (≈ 6.11 µg/mL) | 10 (≈ 12.2 µg/mL) | 10 (≈ 12.2 µg/mL) | 282 | 5 (≈ 6.11 µg/mL) | 5 (≈ 6.11 µg/mL) | 40 (≈ 48.9 µg/mL) | Active |  | Active | Active | 
9 | CC(C)C[C@@H]1NC(=O)[C@H](CCCN)NC(=O)[C@H](C(C)C)NC(=O)[C@H](CCCN)NC(=O)[C@H](CCC(N)=O)NC(=O)[C@H](CC(N)=O)NC(=O)[C@@H](Cc2ccccc2)NC(=O)[C@H](Cc2ccccc2)NC(=O)[C@@H]2CCCN2C(=O)[C@@H](Cc2ccccc2)NC1=O | 10 (≈ 12.2 µg/mL) | 10 (≈ 12.2 µg/mL) | 10 (≈ 12.2 µg/mL) | 43 | 5 (≈ 6.11 µg/mL) | 40 (≈ 48.9 µg/mL) | 80 (≈ 97.7 µg/mL) |  |  |  |  | 
10 | CC(C)C[C@@H]1NC(=O)[C@H](CCCN)NC(=O)[C@H](C(C)C)NC(=O)[C@H](Cc2ccc(O)cc2)NC(=O)[C@H](CCCN)NC(=O)[C@H](CC(N)=O)NC(=O)[C@@H](Cc2ccccc2)NC(=O)[C@H](Cc2ccccc2)NC(=O)[C@@H]2CCCN2C(=O)[C@@H](Cc2ccccc2)NC1=O (cyclo(F[dF]N[Orn]YV[Orn]L[dF]P)) | 2.5 (≈ 3.14 µg/mL) | 5 (≈ 6.28 µg/mL) | 5 (≈ 6.28 µg/mL) | 10 | 1.25 (≈ 1.57 µg/mL) | 5 (≈ 6.28 µg/mL) | 40 (≈ 50.3 µg/mL) |  |  |  |  | 
11 | NCCC[C@@H]1NC(=O)[C@H](CCCN)NC(=O)[C@H](CCCN)NC(=O)[C@H](CCCN)NC(=O)[C@@H](Cc2ccccc2)NC(=O)[C@H](Cc2ccccc2)NC(=O)[C@@H]2CCCN2C(=O)[C@@H](Cc2ccccc2)NC(=O)[C@H](CCCN)NC(=O)[C@H](CCCN)NC1=O | 20 (≈ 24.5 µg/mL) | 40 (≈ 48.9 µg/mL) | 80 (≈ 97.9 µg/mL) | > 400 | 10 (≈ 12.2 µg/mL) | 40 (≈ 48.9 µg/mL) | 80 (≈ 97.9 µg/mL) | Active | Active | inactive | inactive | 
12 | O=C(O)c1cn(C2CC2)c2cc(N3CCNCC3)c(F)cc2c1=O |  |  |  |  |  |  |  |  |  |  |  | Activity [21]: inactive; Activity [22]: inactive
